Laboratory results: paper PMC11727334, “A self-immolative Kdn-glycoside substrate enables high-throughput screening for inhibitors of Kdnases” (Glycobiology, 2024)
Entries after “also recorded” stand apart in the source; their conditions may differ. Read-outs that look alike come from different tables or passages of the source.

How the values were obtained:
AfK [1] = target: T1, AfK (Aspergillus fumigatus, UniProt Q4WQS0); assay: HTS assay of AfK activity using Kdn glycoside 4 (384-well, stop solution); format: biochemical; settings: for inhibitory activity verified in repeat assay of HTS hits: TargetMol library pilot screen
T1 construct: AfK was expressed and purified as described by Telford et al; made in house
Experimental: We next miniaturized our assay for use in a 384-well microplate format by optimizing the quantity of detergent and checking for fluorescent signal stability (Figs 2A,S6 and S7 Supporting Information). In each well, we added a solution of buffer containing AfK (50 nM) and then added a library compound using a pin tool. We included both detergent (0.2% (v/v) Tween-20) and BSA (0.01% BSA) to reduce false positives arising from aggregation prone compounds ([Feng et al. 2007]). We then equilibrated the mixture prior to the addition of substrate 4, and the resultant solution was incubated for 1 h after which stop solution was added. To ensure cyclization was complete, the mixture was allowed to react for 1 h prior to measuring the fluorescence. Candidate hits identified in this primary screen were cherry picked and delivered into a gold plate that was used to confirm hits.
To each well in a 384-well microplate, enzyme (20 μL of a 50 nM stock solution) in reaction buffer (100 mM NaOAc, 0.2% Tween-20, 0.01% BSA, pH 4) was added to a library compound (200 nL of 20 μM TargetMol, 10 μM Chembridge), and this mixture was incubated at rt for 1 h. Then, substrate 4 (20 μL of a 50 μM stock) was added and the resultant mixture was incubated at rt for an additional 1 hr. Following addition of stop solution (40 μL of 1 M aqueous K2CO3, pH ≈ 12) to the mixture the plate was incubated for 1 h at rt. Next, the fluorescence for each well was measured (BioTek Neo 2) using an excitation and an emission wavelength of 360 and 450 nm, respectively. The collected data was analyzed using Prism 7.0. We used the known mechanism-based inactivator 2,3-diF-Kdn (3) as the positive control ([Watts et al. 2006]; [Khazaei et al. 2015]). That is, using 2,3-diFKdn at a concentration of 30 μM, following a 10 min incubation, gives a background signal that equates to >90% inhibition.

[2] = target: T2, Kdnase produced by A. fumigatus (AfK) (Aspergillus fumigatus, UniProt Q4WQS0); assay: Inhibition assay of recombinant AfK using 4MU-Kdn as substrate; format: biochemical; settings: for mode of inhibition (Lineweaver-Burk plots) / fold lower IC50 value than that reported for Kdn2en 2: AfK; for fold lower IC50 value than that reported for Kdn2en 2: Kdn2en value from Yeung et al. 2013; for Hill coefficient: pH 4.0
T2 construct: AfK was expressed and purified as described by Telford et al; made in house
Excerpt: (§1) We purchase fresh commercial material for compounds 13 and 14 and performed inhibition assays using recombinant AfK (Methods, Fig. S8, Supporting Information). We determined IC50 values in quadruplicate using 4MU-Kdn as the substrate ([Yeung et al. 2013]). […] We submitted both compounds to a pan-assay interference compounds (PAINS) filter, a compilation of chemical substructures known to show promiscuous biological activities ([Baell and Nissink 2018]). […] We performed standard inhibition assays as described earlier using inhibitor 13 and these recombinant enzymes. […] We also tested inhibitor 13 with the sialidase MvNA, the closest structural homologue to AfK, that is known to cleave a multitude of substrates including Kdn glycosides ([Telford et al. 2011]).
(§2) Each 200 μM reaction mixture was incubated at rt for 2 min prior to the addition of purified sialidase. Inhibitor was added to the reaction mixture and allowed to incubate at rt between 0–60 min in 100 mM sodium acetate buffer pH 4.0 and 0.01% BSA prior to the addition of substrate. The kinetic parameters were determined from initial rate measurements using a substrate concentration of Km/4. The progress of the reaction was continuously monitored for 15 min using a fluorescence spectrophotometer (BioTek Neo 2) and excitation and emission wavelengths of 360 and 450 nm, respectively.

[3] = target: Aspergillus terreus Kdnase (AtK) (Aspergillus terreus, UniProt Q0CMX0); assay: Inhibition assay of recombinant AtK using Kdn4MU as substrate; format: biochemical; settings: for Hill coefficient: pH 4.0
Excerpt: as §1, §2

[4] = target: Trichophyton rubrum Kdnase (TrK) (Trichophyton rubrum, UniProt A0A178EUH2); assay: Inhibition assay of recombinant TrK using Kdn4MU as substrate; format: biochemical; settings: for Hill coefficient: pH 4.0
Excerpt: as §1, §2

neuraminidase MvNA = neuraminidase MvNA (Micromonospora viridifaciens, UniProt Q02834); assay: Inhibition assay of the sialidase MvNA using Kdn4MU as substrate; format: biochemical; settings: for Hill coefficient: Table 1, 37 °C, pH 5.5
Excerpt: as §1
as §2, with “Inhibitor was added to the reaction mixture and allowed to incubate at rt between 0–60 min in 100 mM sodium acetate buffer pH 4.0 and 0.01% BSA prior to the addition of substrate.” left out

AfK [5] = target: T1, AfK; assay: Differential scanning fluorimetry (DSF) thermal shift assay, AfK; format: binding; settings: for effect on thermal stability of the folded enzyme (DSF, in words): AfK; for protein melting temperature (DSF, Table S3): inhibitor 500 µM, 100 mM pH 4.0 NaOAc, 5–10 µM enzyme; for ΔTm at 500 µM: read-out: Thermal shift (ΔTm) relative to DMSO (2.5%) control
Excerpt: (§3) We next used a separate biophysical technique, differential scanning fluorimetry (DSF), to confirm that these compound bind to the various Kdnases. Specifically, we measured protein melting temperatures in the presence of Kdn2en (2) and candidate ligands 13 and 17 (Fig. 3D). […] We repeated this DSF assay on AtK and TrK and we observed similar trends in thermal shifts (Fig. S14 and Tables S2,S3 and S4, Supporting Information). […] Accordingly, further follow up on this compound would need to be pursued with an awareness of this possibility.
(§4) Table S3. Differential scanning fluorometry-based (DSF) assay for inhibitors 2, 13, and 17 binding to Af, At, Tr and MvNA. Protein thermal shifts(ΔTm) using DMSO (2.5%), and inhibitors 2, 13, and 17 at 500 µM against the Kdnase of Af, At, Tr and MvNA. Assay done using 5–10 µM enzyme and 100 mM pH 4.0 NaOAc (pH 5.5 MvNA). A temperature range of 25°C to 95°C was used with a gradient of 0.05°C/sec. […]
(§5) Table S4. Thermal shifts (ΔTm) for stabilization of AfK, AtK, TrK and MvNA on inhibitor binding relative to the DMSO (2.5%) control. […]

AtK = assay: Differential scanning fluorimetry (DSF) thermal shift assay, AtK; format: binding, Aspergillus terreus; settings: for Thermal shift (ΔTm) relative to DMSO (2.5%) control: Table S4; for Thermal shift (ΔTm) relative to DMSO (2.5%) control / protein melting temperature (DSF, Table S3): inhibitor 500 µM; for protein melting temperature (DSF, Table S3): 100 mM pH 4.0 NaOAc, 5–10 µM enzyme
Excerpt: as §3, §4, §5

TrK = assay: Differential scanning fluorimetry (DSF) thermal shift assay, TrK; format: binding, Trichophyton rubrum; settings: for Thermal shift (ΔTm) relative to DMSO (2.5%) control: Table S4; for Thermal shift (ΔTm) relative to DMSO (2.5%) control / protein melting temperature (DSF, Table S3): inhibitor 500 µM; for effect on thermal stability of the folded enzyme (DSF, in words): TrK; for protein melting temperature (DSF, Table S3): 100 mM pH 4.0 NaOAc, 5–10 µM enzyme
Excerpt: as §3, §4, §5

MvNA = MvNA (Micromonospora viridifaciens, UniProt Q02834); assay: Differential scanning fluorimetry (DSF) thermal shift assay, MvNA; format: binding; settings: inhibitor 500 µM; for ΔTm at 500 µM: Table S4, read-out: Thermal shift (ΔTm) relative to DMSO (2.5%) control; for protein melting temperature (DSF, Table S3): pH 5.5, 5–10 µM enzyme
Experimental: as §4, §5

[6] = Table 1, 37 °C, Kdn4MU substrate, NaOAc 100 mM pH 4.0, 0.01% BSA, read-out: IC50
[7] = Table 1, calculated Ki = IC50/(([S]/Km) + 1), read-out: Ki
[8] = Table S2, values from this work
[9] = Table 1, calculated Ki = IC50/(([S]/Km) + 1)

Chain of Trichophyton rubrum Kdnase (TrK) (A0A178EUH2 entry or part of it): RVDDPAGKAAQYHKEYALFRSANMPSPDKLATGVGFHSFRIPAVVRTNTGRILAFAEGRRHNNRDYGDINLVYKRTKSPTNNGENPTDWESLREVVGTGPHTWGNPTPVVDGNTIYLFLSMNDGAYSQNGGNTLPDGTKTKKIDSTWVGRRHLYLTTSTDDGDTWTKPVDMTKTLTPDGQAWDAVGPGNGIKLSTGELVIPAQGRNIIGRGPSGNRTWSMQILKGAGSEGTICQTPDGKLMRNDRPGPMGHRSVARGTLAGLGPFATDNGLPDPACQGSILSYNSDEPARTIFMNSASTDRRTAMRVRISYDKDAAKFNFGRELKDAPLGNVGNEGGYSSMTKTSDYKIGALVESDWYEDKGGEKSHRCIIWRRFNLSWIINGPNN
Chain of MvNA (Q02834 38-647): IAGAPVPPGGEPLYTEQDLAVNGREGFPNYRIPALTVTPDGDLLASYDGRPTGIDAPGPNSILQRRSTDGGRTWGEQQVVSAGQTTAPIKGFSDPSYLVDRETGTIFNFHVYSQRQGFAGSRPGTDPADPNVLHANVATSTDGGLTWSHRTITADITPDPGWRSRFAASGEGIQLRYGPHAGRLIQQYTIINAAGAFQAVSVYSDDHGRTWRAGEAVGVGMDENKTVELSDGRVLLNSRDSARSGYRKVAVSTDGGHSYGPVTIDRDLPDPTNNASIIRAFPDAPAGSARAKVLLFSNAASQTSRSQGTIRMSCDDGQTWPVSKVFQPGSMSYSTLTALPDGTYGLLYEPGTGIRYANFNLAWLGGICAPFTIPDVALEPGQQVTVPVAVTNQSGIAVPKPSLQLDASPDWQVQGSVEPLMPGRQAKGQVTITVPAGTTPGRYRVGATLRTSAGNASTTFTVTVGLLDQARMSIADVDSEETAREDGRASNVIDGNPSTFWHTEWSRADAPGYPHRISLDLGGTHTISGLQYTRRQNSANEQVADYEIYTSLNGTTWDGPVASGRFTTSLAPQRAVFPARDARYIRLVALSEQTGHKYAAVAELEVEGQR
Chain of neuraminidase MvNA (Q02834 38-647): as above
T1 sequence (Q4WQS0 21-406): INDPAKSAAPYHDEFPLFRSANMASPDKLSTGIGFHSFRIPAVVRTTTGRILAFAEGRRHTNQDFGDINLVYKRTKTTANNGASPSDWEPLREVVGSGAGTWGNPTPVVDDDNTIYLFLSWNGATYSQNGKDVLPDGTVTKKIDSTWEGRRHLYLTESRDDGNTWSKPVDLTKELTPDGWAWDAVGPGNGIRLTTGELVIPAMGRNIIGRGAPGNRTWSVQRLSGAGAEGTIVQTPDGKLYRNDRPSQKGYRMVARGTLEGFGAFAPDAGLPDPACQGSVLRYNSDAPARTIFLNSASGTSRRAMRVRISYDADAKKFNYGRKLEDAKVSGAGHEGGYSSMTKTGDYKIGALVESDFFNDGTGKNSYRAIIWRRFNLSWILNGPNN
T2 sequence (Q4WQS0 21-406): as above
Chain of Aspergillus terreus Kdnase (AtK) (Q0CMX0 entry or part of it): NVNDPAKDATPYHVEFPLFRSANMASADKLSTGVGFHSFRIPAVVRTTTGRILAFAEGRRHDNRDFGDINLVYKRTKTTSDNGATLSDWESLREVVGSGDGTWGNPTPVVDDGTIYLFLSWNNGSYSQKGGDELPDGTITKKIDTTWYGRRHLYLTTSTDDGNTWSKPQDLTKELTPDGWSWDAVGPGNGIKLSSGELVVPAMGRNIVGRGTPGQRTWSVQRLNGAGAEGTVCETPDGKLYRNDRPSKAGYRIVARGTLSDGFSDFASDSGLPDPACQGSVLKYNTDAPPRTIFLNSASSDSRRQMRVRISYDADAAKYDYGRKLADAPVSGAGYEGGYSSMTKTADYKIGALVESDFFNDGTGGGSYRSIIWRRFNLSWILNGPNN

Structure (SMILES)	mode of inhibition (Lineweaver-Burk plots) [2]	fold lower IC50 value than that reported for Kdn2en 2 [2]	IC50 [2, 6]	Hill coefficient ([2]; Table 1, 37 °C)	Ki [2, 7]	Hill [2, 8]	Hill coefficient ([3]; Table 1, 37 °C)	Hill coefficient ([4]; Table 1, 37 °C)	IC50 (neuraminidase MvNA)	Hill coefficient (neuraminidase MvNA)	inhibitory activity verified in repeat assay of HTS hits (AfK [1])	effect on thermal stability of the folded enzyme (DSF, in words) (AfK [5])	protein melting temperature (DSF, Table S3) (AfK [5])	ΔTm at 500 µM (AfK [5])	Thermal shift (ΔTm) relative to DMSO (2.5%) control (AtK)	protein melting temperature (DSF, Table S3) (AtK)	Thermal shift (ΔTm) relative to DMSO (2.5%) control (TrK)	effect on thermal stability of the folded enzyme (DSF, in words) (TrK)	protein melting temperature (DSF, Table S3) (TrK)	ΔTm at 500 µM (MvNA)	also measured
O=C(O)[C@]1(F)O[C@@H]([C@H](O)[C@H](O)CO)[C@H](O)[C@@H](O)[C@H]1F [compound 3, 2,3-diF-α-Kdn]																					inhibition at 30 µM (AfK [1]; 30 μM, 10 min incubation): > 90%; activity at 30 µM (AfK [1]; 30 μM, reacted with AfK for 10 min, read-out: fluorescent signal relative to the uninhibited sample): < 10%; Hill Slope (AfK [1]; following incubation (10 min)): -1.2; IC50 (AfK [1]; following incubation (10 min), read-out: apparent IC50): 3.1 µM
O=C(/C=C/c1ccc(O)c2c1[C@H](C(=O)O)[C@@H](c1ccc(O)c(O)c1)O2)O[C@H](Cc1ccc(O)c(O)c1)C(=O)O [compound 13, lithospermic acid]	competitive inhibitors	24 fold	22.8 ± 1 µM	−1.32	18.7 µM	–1.32	−1.36	−0.80	347 ± 2 µM	−0.90	inhibit AfK	stabilizes neither AfK; also recorded: no effect on the stability of AfK	51.4 ± 0.1 °C	-0.1 °C	–0.8 ± 0.1 °C	51.1 ± 0.1 °C	+13.7 ± 0.1 °C	does stabilize TrK	48.4 ± 0.1 °C	1 °C	time-dependent inhibition ([2]; time points 0, 10 and 60 mins, 50 µM Kdn4MU 1 substrate): no time dependent changes in calculated IC50 values; IC50 [3]: 14.4 ± 0.07 µM; mode of inhibition ([3]; AtK): competitively inhibited; IC50 [4]: 11.8 ± 0.1 µM; mode of inhibition ([4]; TrK): competitively inhibited; protein melting temperature (DSF, Table S3) (MvNA): 54.9 ± 0.4 °C
CC(C)(C)c1cc(C=C(C#N)C#N)cc(C(C)(C)C)c1O [compound 14, Tyrphostin A9, reference compound]	competitive inhibitors					–0.92					inhibit AfK										IC50 [2]: 65.8 ± 1.7 µM; Ki [2]: 58.4 µM
O=C1NC[C@@]2(C(=O)O)CN(Cc3ccc(C4CCCCC4)s3)C[C@@H]12 [compound 17]	competitive inhibitor	5 fold	115 ± 2 µM	−0.81	74.7 µM	–0.81	−0.88	−1.11	6.6 ± 0.6 µM	−0.89		stabilizes all three Kdnases; also recorded: positive unfolding temperature shifts	54.6 ± 0.1 °C	3.1 °C	+3.5 ± 0.1 °C	55.4 ± 0.1 °C	+16.2 ± 0.1 °C	stabilizes all three Kdnases	50.9 ± 0.1 °C	5.2 °C	IC50 ([2]; Table S2, Kdn4MU substrate, sodium acetate 100 mM pH 4.0, 0.01% BSA, 37 C, values from this work, read-out: IC50): 115 ± 2 µM; inhibition of AfK in standard inhibition assay ([2]; purchased compounds, 4MU-Kdn 1 as substrate): inhibited AfK; IC50 [3, 6]: 50 ± 1.2 µM; Ki [3, 9]: 38.5 µM; IC50 [4, 6]: 93.3 ± 0.8 µM; Ki [4, 9]: 73.3 µM; effect on thermal stability of the folded enzyme (DSF, in words) (AtK; AtK): stabilizes all three Kdnases; protein melting temperature (DSF, Table S3) (MvNA): 59.1 ± 0.1 °C
